From article PMC9312958, “A Novel and Selective Dopamine Transporter Inhibitor, (S)-MK-26, Promotes Hippocampal Synaptic Plasticity and Restores Effort-Related Motivational Dysfunctions” (Biomolecules, 2022)
Where “and” joins values, the source holds several entries; their conditions need not be identical. Equal values may be shown once. Read-outs that look alike come from different tables or passages of the source.

Tests used:
[1] = system: aged rats; experiment: Hole-board test, spatial reference memory; type: in vivo, rat
Description: In order to examine the effect of (S)-MK-26 on hippocampus-dependent spatial reference memory, we used the standardized hole-board test (animal experiments conducted under BMBWF-66.009/235/V/3b/2018 regulations) following published procedures with minor modifications. In brief, food restriction and controlled body weight loss with it (until steadily reaching 85% of the average body weight sustained during ad libitum feeding) was initially imposed for this experimental study as cognitive/behavioral incentive. A black plastic hole-board maze (1 m^2 base) with 16 symmetrically distributed holes located at the floor (7 cm in diameter and depth) and walls enriched with spatial cues was used (See Figure 4). Accessory distal cues were also visible in the walls of the experimental room. Dustless precision food pellets (45 mg, Bioserv®, Flemington, NJ, USA) were placed as motivational baits in four randomly designated holes, unchanged throughout the test. Several inaccessible pellets were also placed all across the entire area immediately below all the holes of the board maze in order to induce a uniform distribution of the food smell and thus preventing the acute orientating response of the sense of smell from prevailing over the evocation of spatial memories associated with the location of accessible food. […] The behavioral experiments were conducted in a noise-isolated room; all sessions were monitored by a distal overhead conventional digital camera and behavioral data digitalized using the ANY-Maze video tracking system (Stoelting Europe, 8-Terenure Place, Terenure, Dublin, D6W Y006, Ireland). Spatial memory performance was assessed from the number of errors made by the animal, that is, the number of times the animals visit unbaited holes (reference memory). […] Thus, from these measurements, an RMI value of “1” would constitute quantifiable indicator of optimal reference memory, with a performance without empty-hole visiting mistakes. […]

[2] = Plasma and brain compound levels and pharmacokinetic parameters after i.p. administration; type: in vivo, male Sprague–Dawley rats; conditions: rat, 10 mg/kg i.p.; for concentration at 10 h: read-out: Clast
Method: The bioavailability of (S)-MK-26 after intraperitoneal (i.p.) administration in male Sprague–Dawley rats (260–351 g) was outsourced to Evotec (Toulouse CEDEX, France, Study Number VDD10431). (S)-MK-26 at dose of 10 mg/kg of body weight was i.p. administered and blood samples and brains were collected at 0.083, 0.25, 0.5, 1, 3, 7, 10, and 24 h post-administration (3 rats per time point). Plasma and brain levels of (S)-MK-26 were measured by LC-MS by a standard validated protocol defined by the contractor, and the pharmacokinetic parameters were calculated from individual concentrations by WinNonLin7.0 (Phoenix64), a non-compartmental model.

[3] = male, Sprague-Dawley, ip, brain
[4] = male, Sprague-Dawley, ip, plasma

For `[O-][S@@+](Cc1cncs1)C(c1cccc(Cl)c1)c1cccc(Cl)c1` [(S)-MK-26, (S)-5-(((B(3-chlorophenyl)methyl)sulphinyl)methyl)thiazole], the “spatial reference memory (reference memory index)” value ([1]; 10 mg/kg i.p. daily, vs Kolliphor) was “slight and transitory—yet statistically significant—enhancement of spatial reference memory”, the “exploratory activity (distance travelled) during H3 habituation session” value ([1]; 10 mg/kg i.p., p = 0.0053) was “induced an increase in ecology-like exploratory activity” and the “number of hole dips” value ([1]; 10 mg/kg i.p., vs Kolliphor) was “No differences”. For the same molecule, the “detectable up to (time)” value ([2]; brain and plasma) was 10 h, the Tlast ([2]; brain) was 10.0 h and the “time of maximum mean brain concentration” value ([2]; brain) was 15 min. The “maximum mean brain concentration” value ([2]; brain, at 15 min) was 634 ± 140 ng/g, the Kp ([2]; male, Sprague-Dawley, brain and plasma, ip, read-out: mean brain to plasma concentration ratio) was 1.12 ± 0.19 and the AUC(0-t) [2, 3] was 1960 ng·h/mL and 5.14 µM·h. The Cmax [2, 3] was 634 ng/mL and 1.67 µM, the Tmax [2, 3] was 15 min and the concentration at 10 h [2, 3] was 19.2 nM. For the same molecule, the AUC(0-t) [2, 4] was 1710 ng·h/mL and 4.5 µM·h, the Cmax [2, 4] was 624 ng/mL and 1.64 µM and the Tmax [2, 4] was 30 min. The concentration at 10 h [2, 4] was 15.7 nM, the Tlast ([2]; plasma) was 10.0 h and the “time to peak mean plasma concentration” value ([2]; plasma) was ≤ 30 min. For the same molecule, the “adverse effects during the pharmacokinetic study” value [2] was “No adverse effects were observed”.
